Usually IC50 stands for the midpoint of a concentration-inhibition curve. Read a low IC50 as greater potency in that assay.

The record followed here is patent publication EP4803513A1, “SUBSTITUTED QUINAZOLINE COMPOUND, PREPARATION METHOD THEREFOR, PHARMACEUTICAL COMBINATION THEREOF, AND USE THEREOF” (Hongyun Biotech Co., Ltd., priority 2023, dated 2025).

The test system of assay [1] is BRK-BaF3 cells. The experiment in a line: Cell antiproliferative activity assay (CCK-8), BRK-BaF3. The format is cell-based. The note with it: 72 h, CCK-8, 3 days incubation. The procedure, abridged: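 Growth inhibition over 3 days, with compound serially diluted 3-fold from a 10 µM top concentration. Cells seeded at 100,000 cells/mL; WT-BaF3 medium carried 10% WEHI supernatant as the IL-3 source. Viability read by CCK-8 OD450 after 2-4 h; IC50 from blank-subtracted curve fit.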

For assay [2], the system named is WT-BaF3 cells. The experiment in a line: Cell antiproliferative activity assay (CCK-8), WT-BaF3 (broad-spectrum cytotoxicity). The note with it: 72 h; WT-BaF3 cells (IL-3 supplemented), CCK-8, 3 days incubation. The format is cell-based. On the procedure:
The activity of compounds against BRK kinase can be evaluated by their inhibition of the growth of the BRK kinase-stably transfected BaF3 cell line (BRK-BaF3) and wild-type BaF3 cells (WT-BaF3). […] The larger the ratio of the half-maximal growth inhibitory concentration (IC50) of a compound between WT-BaF3 and BRK-BaF3 cells, the better the selectivity of the compound.
BRK-BaF3, WT-BaF3, WEHI cell line, and breast cancer cell line T47D were cultured using RPMI 1640 Basal medium or DMEM (Dulbecco's Modified Eagle Medium) (Shanghai Peiyuan Biotechnology, L220KJ), supplemented with 10% FBS (Gibco, REF 10099-141C) and 1% P/S (Shanghai Peiyuan Biotechnology, S110JV), in an incubator (Thermo 3020) at 37°C with 5% CO2. Cell viability was above 95%. Cells were passaged at a 3:1 ratio every 3-4 days. For WT-BaF3 cells, WEHI cells were first cultured, and their culture supernatant was filtered through a 0.22 µm filter. This supernatant was added at 10% to the regular culture medium to supplement IL-3 required for WT-BaF3 cell proliferation, which served as the culture medium for WT-BaF3. For testing, cells were first collected and counted, then prepared into a cell suspension at 100,000 cells/mL and plated at 100 µL per well. Drug concentrations started from 10 µM and were serially diluted 3:1. After incubation for 3 days, 20 µL of CCK-8 detection reagent (Targetmol C005) was added to each well. After incubation for 2-4 hours, OD450 was measured using a microplate reader (Varioskan LUX, Thermo Scientific). After subtracting the blank background, the curve was fitted and the IC50 was calculated using XLfit software.

Take `Cc1ccnc(N)c1-c1cc(C(C)C)c2nc(Nc3cn(CCO)nc3C)ncc2c1` [I-50]: the IC50 in assay [1] is ≤ 20 nM; in assay [2] it was > 2500 nM.
For the compound `Cc1nn(CCO)cc1Nc1ncc2cc(-c3nnccc3C#N)cc(C3CC3)c2n1` [I-118], the IC50 in assay [1] is 20 to 100 nM; in assay [2] it was > 2500 nM.
For the compound `Cc1nn(CCO)cc1Nc1ncc2cc(-c3cccnc3C)cc(C(F)(F)F)c2n1` [I-76], the IC50 is ≤ 20 nM in assay [1] and > 2500 nM in assay [2].
As for `COCCn1cc(Nc2ncc3cc(-c4c(C)ncnc4C)cc(C(C)C)c3n2)c(C)n1` [III-94], the figures for the IC50 in assay [1] and in assay [2] were ≤ 20 nM and > 2500 nM, respectively.
The like results for `Cc1nn(CCO)cc1Nc1ncc2cc(-c3c(C)ncnc3C)cc(C(C)C)c2n1` [I-128] were, in that order, ≤ 20 nM and > 2500 nM.
For `Cc1ncccc1-c1cc(C(C)C)c2nc(Nc3cnn(CCO)c3C)ncc2c1` [I-66], the IC50 was 20 to 100 nM in assay [1] and 500 to 2500 nM in assay [2].
For `Cc1ncnc(C)c1-c1cc(C(C)C)c2nc(Nc3cn(CCO)nc3Cl)ncc2c1` [I-143] the same measures were 20 to 100 nM and > 2500 nM.
Take `Cc1nccnc1-c1cc(C)c2nc(Nc3ccc(P(C)(C)=O)cc3)ncc2c1` [II-68]: the half-maximal inhibitory concentration (IC50) was 20 to 100 nM in assay [1] and > 2500 nM in assay [2].
Turning to `Cc1nn(CCO)cc1Nc1ncc2cc(-c3ccncc3F)cc(C(C)C)c2n1` [I-11], the IC50 in assay [1] was ≤ 20 nM; in assay [2], 500 to 2500 nM.
For `Cc1nn(C)cc1Nc1ncc2cc(-c3cncc(F)c3C(N)=O)cc(C(C)C)c2n1` [III-127], the 50% inhibitory concentration (IC50) in assay [1] was 20 to 100 nM; in assay [2] it was > 2500 nM.
As for `Cc1nn(CC(C)(C)O)cc1Nc1ncc2cc(-c3c(C)ncnc3C)cc(C(C)C)c2n1` [I-144], the IC50 in assay [1] was ≤ 20 nM; in assay [2], > 2500 nM.
With `Cc1nn(CCO)cc1Nc1ncc2cc(-c3cncnc3C)cc(C(F)(F)F)c2n1` [I-152], the IC50 in assay [1] was ≤ 20 nM; in assay [2], > 2500 nM.
Regarding `Cc1nn(CC(C)(C)O)cc1Nc1ncc2cc(-c3nccnc3C)cc(C(C)C)c2n1` [I-101], the IC50 in assay [1] is ≤ 20 nM; in assay [2], > 2500 nM.
The like results for `Cc1nn(CCO)cc1Nc1ncc2cc(-c3c(O)cccc3F)cc(C(C)C)c2n1` [I-155] were, in that order, ≤ 20 nM and 500 to 2500 nM.
In the case of `Cc1nn(CCO)cc1Nc1ncc2cc(-c3cccnc3)cc(C(F)(F)F)c2n1` [I-75], the IC50 in assay [1] is ≤ 20 nM; in assay [2], > 2500 nM.
As to `Cc1nn(CCO)cc1Nc1ncc2cc(-c3nccnc3C)cc(C3CC3)c2n1` [I-103], the concentration for half-maximal inhibition (IC50) in assay [1] was ≤ 20 nM; in assay [2], 500 to 2500 nM.
Regarding `Cc1nccnc1-c1cc(C2CC2)c2nc(Nc3ccc(P(C)(C)=O)cc3F)ncc2c1` [II-31], the results for the IC50 in assay [1] and in assay [2] were ≤ 20 nM and > 2500 nM, respectively.
For `Cc1nn(CCO)cc1Nc1ncc2cc(-c3nnccc3C#N)cc(C(C)C)c2n1` [I-117] the same measures were 20 to 100 nM and > 2500 nM.
Turning to `COc1ncccc1-c1cc(C(C)C)c2nc(Nc3cn(CCO)nc3C)ncc2c1` [I-25], the IC50 in assay [1] was ≤ 20 nM; in assay [2] it was > 2500 nM.
For the compound `Cc1c[nH]c(=O)cc1-c1cc(C(C)C)c2nc(Nc3cnn(C4COC4)c3C)ncc2c1` [III-41], the IC50 was ≤ 20 nM in assay [1] and > 2500 nM in assay [2].
For `Cc1nccnc1-c1cc(C(C)C)c2nc(Nc3cnn(CCO)c3C)ncc2c1` [I-102] the same measures were ≤ 20 nM and > 2500 nM.
In the case of `Cc1ncnc(C)c1-c1cc(C(C)C)c2nc(Nc3cn(CCO)nc3C(F)F)ncc2c1` [I-141], the IC50 is 20 to 100 nM in assay [1] and > 2500 nM in assay [2].
On to `COc1cnccc1-c1cc(C(C)C)c2nc(Nc3cn(CCO)nc3C)ncc2c1` [I-13], for which the IC50 in assay [1] is ≤ 20 nM; in assay [2] it was > 2500 nM.
In the case of `Cc1nccnc1-c1cc(C(F)(F)F)c2nc(Nc3ccc(P(C)(C)=O)cc3)ncc2c1` [II-34], the IC50 in assay [1] was ≤ 20 nM; in assay [2] it was > 2500 nM.
For `COc1cc(P(C)(C)=O)ncc1Nc1ncc2cc(-c3c(C)ncnc3C)cc(C(C)C)c2n1` [II-44] the same measures were 20 to 100 nM and > 2500 nM.
For the compound `Cc1nn(CCO)cc1Nc1ncc2cc(-c3c(C)ncnc3N)cc(C(C)C)c2n1` [I-129], the values for the IC50 in assay [1] and in assay [2] were 20 to 100 nM and > 2500 nM, respectively.
The like results for `Cc1nc(Nc2ncc3cc(-c4nccnc4C)cc(C(C)C)c3n2)ccc1P(C)(C)=O` [II-10] were, in that order, 20 to 100 nM and > 2500 nM.
As to `Cc1nn(CCO)cc1Nc1ncc2cc(-c3cnccc3C#N)cc(C(C)C)c2n1` [I-34], the IC50 in assay [1] is ≤ 20 nM; in assay [2], > 2500 nM.
For `COc1cc(P(C)(C)=O)ncc1Nc1ncc2cc(-c3nccnc3C)cc(C(C)C)c2n1` [II-5], the IC50 is ≤ 20 nM in assay [1] and > 2500 nM in assay [2].
`Cc1nccnc1-c1cc(C(C)C)c2nc(Nc3ccc(P(C)(C)=O)c(Cl)c3F)ncc2c1` [II-17]: the figures for the IC50 in assay [1] and in assay [2] were ≤ 20 nM and 500 to 2500 nM, respectively.
Consider `Cc1nn(C2COC2)cc1Nc1ncc2cc(-c3c(C)ncnc3C)cc(C(C)C)c2n1` [III-95], for which the IC50 was in the range of 20 to 100 nM in assay [1] and 500 to 2500 nM in assay [2].
As to `Cc1nn(CCCO)cc1Nc1ncc2cc(-c3nccnc3C)cc(C(C)C)c2n1` [I-100], the IC50 in assay [1] was ≤ 20 nM; in assay [2] it was 500 to 2500 nM.
As to `COc1nc(P(C)(C)=O)ccc1Nc1ncc2cc(-c3nccnc3C)cc(C3CC3)c2n1` [II-32], the IC50 in assay [1] was ≤ 20 nM; in assay [2], 500 to 2500 nM.
As for `Cc1ccc(C#N)cc1-c1cc(C(C)C)c2nc(Nc3cnn(CCO)c3C)ncc2c1` [I-170], the IC50 in assay [1] was ≤ 20 nM; in assay [2] it was > 2500 nM.
In the case of `Cc1cnc(F)cc1-c1cc(C(C)C)c2nc(Nc3cn(CCO)nc3C)ncc2c1` [I-17], the IC50 in assay [1] is ≤ 20 nM; in assay [2], 500 to 2500 nM.
For `Cc1nn(CCO)cc1Nc1ncc2cc(-c3cnccc3F)cc(C(C)C)c2n1` [I-31], the IC50 in assay [1] was ≤ 20 nM; in assay [2], > 2500 nM.
For the compound `Cc1nn(CCO)cc1Nc1ncc2cc(-c3cncnc3N)cc(C(C)C)c2n1` [I-124], the IC50 was 20 to 100 nM in assay [1] and > 2500 nM in assay [2].
`Cc1cc(Nc2ncc3cc(-c4nccnc4C)cc(C(C)C)c3n2)cnc1P(C)(C)=O` [II-6]: the IC50 in assay [1] was ≤ 20 nM; in assay [2], > 2500 nM.
As to `Cc1nccnc1-c1cc(C(C)C)c2nc(Nc3ccc(P(C)(C)=O)nc3)ncc2c1` [II-3], the results for the IC50 in assay [1] and in assay [2] were ≤ 20 nM and > 2500 nM, respectively.
For `Cc1nn(C2COC2)cc1Nc1ncc2cc(-c3nccnc3C)cc(C(C)C)c2n1` [III-104] the same measures were ≤ 20 nM and > 2500 nM.
Consider `COc1cc(Nc2ncc3cc(-c4nccnc4C)cc(C(C)C)c3n2)cc(OC)c1P(C)(C)=O` [II-73], for which the 50% inhibitory concentration (IC50) in assay [1] is ≤ 20 nM; in assay [2] it was 500 to 2500 nM.
Turning to `Cc1nn(C2CCN(C)CC2)cc1Nc1ncc2cc(-c3nccnc3C)cc(C(C)C)c2n1` [III-106], the IC50 in assay [1] is ≤ 20 nM; in assay [2] it was 500 to 2500 nM.
On to `Cc1nn(CCO)cc1Nc1ncc2cc(-c3c(C)ncnc3O)cc(C(C)C)c2n1` [I-130], for which the IC50 is 20 to 100 nM in assay [1] and > 2500 nM in assay [2].
For `Cc1ncnc(C)c1-c1cc(C(C)C)c2nc(Nc3ccc(P(C)(C)=O)cc3)ncc2c1` [II-50] the same measures were 20 to 100 nM and > 2500 nM.
